In brackets after ≈: the same amount, converted by molar mass. Like-named read-outs stand apart in the source and are kept apart here.
Columns and labels:
[1] = tested on: Trypanosoma cruzi (Tulahuen C2C4 strain); assay: American trypanosome protozoa growth inhibition screening test; type: cell-based; settings: Trypanosoma cruzi, Table 5, in rat L6 cells, 96 hours, CPRG/Nonidet, read-out: 50% Growth inhibition concentration Trypanosoma cruzi
Method: In the present experiment, amastigote and trypomastigote infected with rat L6 cells of protozoa of Trypanosoma cruzi (Tulahuen C2C4 starin) were used. As medium used in the test, RPMI 1640 medium containing L6 cells was supplemented so that L-glutamine (200 mM) become 1%, fetal bovine serum becomes 10%, which was cultured under CO2 concentration 5%, at 37° C.
The compounds of the present invention to be used in the present test and the positive control drug (benznidazole) were dissolved in DMSO to make a test solution of a predetermined concentration.
A medium containing 5×10^3 protozoa was added to wells of a 96-well culture plate, and pre-cultured for 48 hours. After replacing the medium, test solution containing drug of a predetermined concentration or a drug-free DMSO was added. Test solutions were taken by duplicates.
After culturing the culture plate in an incubator for 96 hours, growth inhibition activity was tested. Test was conducted as follows. 50 μL of CPRG/Nonidet was added to each well, and allowed to rest for 2 to 6 hours. Next, the culture plate was placed on a fluorescent micro-plate reader. The absorbance was measured at 540 nm, and the trypanosome infection rate of the test solution added group and control group were calculated.
(§1) Growth inhibition rate (%)={1−(b−a)/(c−a)}×100 • a: early infection rate • b: infection rate when test solution was added • c: infection rate of the control

Plasmodium falciparum K1 = assay: Chloroquine resistant-Plasmodium falciparum growth inhibition screening test; type: cell-based; settings: EC50 against rat L6 cells / EC50 against P. falciparum K1
Method: In the present experiment, protozoa of plasmodium falsiparum K1 strain was used. RPMI-1640 medium sterilized with a filter to which human serum was added to be 5%, was used in the experiment. Malarial parasites were cultured under 3% O2 concentration, 4% CO2 concentration, 93% N2 concentration, and at a temperature of 37° C.
The compounds of the present invention to be used in the present test and the positive control drug (chloroquine) were dissolved in DMSO to make a test solution of a predetermined concentration. Cultured malaria parasite infected-erythrocytes were collected by centrifugation, and diluted with non-infected erythrocyte so that the early infection rate was 0.15%. Hematocrit level at that time was 2.5%.
200 μL of malaria infected solution was added to wells of a 96-well culture plate, and adjusted by adding a test solution containing drug of a predetermined concentration or a drug-free DMSO. Test solutions were taken by duplicates.
[…] […] Radiation intensity was measured with a beta plate liquid scintillation counter (Wallac), and malarial parasite infection rates of the test solution added group and the control group were calculated.
Growth inhibition rate (%)={1−(b−a)/(c−a)}×100 • a: early infection rate • b: infection rate when test solution was added • c: infection rate of the control 3. Growth Inhibition Test of Rat L6 Cells
Antimalarial activity of a sample was estimated from EC50 values of the sample against chloroquine resistant-Plasmodium falciparum and rat L6 cells. […] It means that the larger the value of the selection toxity, the less the risk of the side effect is. Chemotherapy index=(EC50 value of a sample against rat L6 cells)/(EC50 value of a sample against chloroquine resistant-Plasmodium falsiparum)

Rat L6 cells = assay: Growth inhibition test of rat L6 cells; type: cell-based; settings: Table 1, 72 hours, Alamar Blue, read-out: 50% Growth inhibition concentration Cytoxicity L6
Method: Rat derived-L6 cells (rat skeletal myoblast cell) were used. A medium, RPMI1640 medium was supplemented so that L-glutamin (200 mM) is 1%, and fetal bovine serum 10%, and the medium was cultured under CO2 concentration 5%, at 37° C.
The compounds of the present invention and the control drugs to be used in the test were dissolved in DMSO, to make a test solution of a predetermined concentration.
Pre-culture was conducted and medium containing cells which have entered the logarithmic growth phase was taken to wells of a 96-well culture plate. Then, a test solution containing drug of a predetermined concentration or a drug-free DMSO was added. Test solutions were taken by duplicates.
Culture plate was cultured for 72 hours in an incubator, to test the growth inhibition activity. Test was conducted as follows. 10 μL of Alamar Blue aqueous solution was added to each well, and the resultant was further cultured for 2 hours. Next, the culture plate was placed on a fluorescent micro-plate reader (Spectramax Gemeni XS; US Molecular Device), radiated at an excited wavelength of 536 nm. Fluorescent intensity was measured at 588 nm, and residual rate of L6 cells of the test solution added group, and that of the control was calculated.
Growth inhibition rate (%)={(C−A)/(B−A)}×100 • A: Primary cell count • B: cell count of control, 3 days after • C: cell count of wells added with a sample, 3 days after 4. Determination of Drug Efficacy Against Chloroquine Resistant-Plasmodium

[2] = tested on: Trypanosoma brucei rhodesiense (STIB 900 strain); assay: African trypanosome protozoa growth inhibition screening test; type: cell-based; settings: read-out: 50% Growth inhibition concentration Trypanosoma brucei rhod.
Method: In the present experiment, protozoa of Tripanosoma brucei rhodensiense (STIB 900 Strain), a trypomastigote living in blood stream, was used. The medium used in the experiment was a MEM medium which was sterilized with a filter and supplemented with 25 mM N-2-hydroxyeihylpiperazine-2-ethansulfonic acid (HEPES), 1 g/L glucose, 1% MEM non-essential amino acid, 0.2 mM 2-mercaptoethanol, 2 mM sodium pyruvate, 0.1 mM hypoxanthine, and 15% heat-treated horse serum. The protozoa was cultured in an atmosphere of CO2 concentration 5%, at a temperature of 37° C.
The compounds of the present invention to be used in the present test and the positive control drug (melarsoprol) were dissolved in dimethylsulfoxide (DMSO) to make a test solution of a predetermined concentration.
A medium containing 8×10^3 protozoa, and a test solution containing a drug of a predetermined concentration of a drug-free DMSO were added to wells of a 96-well culture plate, and subsequently, medium was added so that the amount in each well becomes 100 μL. Test solutions were taken by duplicates.
(§2) After culturing the culture plate for 72 hours in an incubator, growth inhibition activity was tested. Test was conducted as follows. 10 μL of Alamar Blue aqueous solution was added to each well, and the resultant was further cultured for 2 hours. Next, the culture plate was placed on a fluorescent micro-plate reader (Spectramax Gemeni XS; US Molecular Device), radiated at an excited wavelength of 536 nm. Fluorescent intensity was measured at 588 nm, to calculate the trypanosome protozoa infected rate of the test solution added-group, and of the control group.
as §1

[3] = tested on: Leishmania donovani (MHOM/ET/67/L82 strain); assay: Leishmania protozoa growth inhibition screening test; type: cell-based; settings: Leishmania donovani; Table 5; amastigotes, 72 hours, Alamar Blue; read-out: 50% Growth inhibition concentration Leishmania donovani
Method: In the present experiment, Leishmania donovani (MHOM/ET/67/L82 strain) was used. Protozoa was subcultured in Syrian Golden hamster, from which an amastigote was obtained. In the experiment, SM medium supplemented with 10% heat-treated bovine fetal serum was used, which was adjusted to pH 5.4, and cultured in an atmosphere of 5% CO2 concentration, at 37° C.
The compounds of the present invention to be used in the present test and the positive control drug (miltefosine) were dissolved in DMSO to make a test solution of a predetermined concentration.
After adding a medium containing a predetermined number of protozoa to wells of a 96-well culture'plate and pre-treating, concentration of the amastigote was measured with CASY cell analysis system (Scharfe, Germany). Then, test solution containing a drug of a predetermined concentration or a drug-free DMSO was added. Test solutions were taken by duplicates.
as §2, with “and infection rate of leishmania” for “to calculate the trypanosome”, “protozoa” for “protozoa infected rate”, “added group” for “added-group,”, “and” for “and of the”, “was calculated.” for “group.”
as §1

| SMILES | EC50 [1] [µg/mL] | Selective toxicity (Plasmodium falciparum K1) | EC50 (Rat L6 cells) [µg/mL] | EC50 ([2]; Table 5, 72 hours, Alamar Blue) [µg/mL] | EC50 [3] [µg/mL] | melting point [°C] | EC50 ([2]; 72 h) [µg/mL] |
| --- | --- | --- | --- | --- | --- | --- | --- |
| O=C(Cn1ccnc1[N+](=O)[O-])NCc1ccccc1 [Benznidazole, benznidazole, reference compound] | 0.225 (≈ 0.866 µM) | – | – | – | – | – | – |
| CCN(CC)c1ccc2nc3c4ccc(Br)cc4c(=Nc4ccncc4)cc-3oc2c1 [Compound 1G, 3-Bromo-N,N-diethyl-5-(pyridin-4-ylimino)-5H-benzo[a]phenoxazin-9-amine] | > 30 | >18000 | > 90 | 61 (≈ 129 µM) | 19.1 (≈ 40.4 µM) | 269 to 271 | – |
| CCN(CC)c1ccc2nc3c4ccccc4c(=Nc4nc5ccc(Cl)cc5s4)cc-3oc2c1 [Compound 1I, 5-(6-Chlorobenzo[d]thiazol-2-ylimino)-N,N-diethyl-5H-benzo[a]phenoxazin-9-amine] | > 30 | >210 | > 90 | 44.8 (≈ 92.4 µM) | 19.6 (≈ 40.5 µM) | 229 to 231 | – |
| CCN(CC)c1ccc2nc3c4ccccc4c(=Nc4cc(C)on4)cc-3oc2c1 [Compound 1J, N,N-Diethyl-5-(5-methylisoxazol-3-ylimino)-5H-benzo[a]phenoxazin-9-amine] | 21.8 (≈ 54.8 µM) | 7360 | 36.8 (≈ 92.4 µM) | 11.8 (≈ 29.6 µM) | 1.86 (≈ 4.67 µM) | 195 to 196 | – |
| CCN(CC)c1ccc2nc3c4ccccc4c(=Nc4ncc(Cl)cc4Cl)cc-3oc2c1 [Compound 1K, 5-(3,5-Dichloropyridin-2-ylimino)-N,N-diethyl-5H-benzo[a]phenoxazin-9-amine] | > 30 | 2866 | 83.1 (≈ 179 µM) | 38.6 (≈ 83.3 µM) | 8.13 (≈ 17.5 µM) | 192 to 193 | – |
| CCN(CC)c1ccc2nc3c4ccccc4c(=Nc4ncccn4)cc-3oc2c1 [Compound 1L, N,N-Diethyl-5-(pyrimidin-2-ylimino)-5H-benzo[a]phenoxazin-9-amine] | 1.78 (≈ 4.5 µM) | 2700 | 5.4 (≈ 13.7 µM) | 0.804 (≈ 2.03 µM) | 0.662 (≈ 1.67 µM) | 208 to 210 | – |
| CCN(CC)c1ccc2nc3c4ccccc4c(=Nc4nc5ccc(OC)cc5s4)cc-3oc2c1 [Compound 1M, N,N-Diethyl-5-(6-methoxybenzo[d]thiazol-2-ylimino)-5H-benzo[a]phenoxazin-9-amine] | > 30 | 1492 | 80.6 (≈ 168 µM) | 40 (≈ 83.2 µM) | 13.8 (≈ 28.7 µM) | 197 to 198 | – |
| Nc1nc(N)nc(Nc2ccc([As]3SCC(CO)S3)cc2)n1 (stereo not drawn) [Melarsoprol, melarsoprol, reference compound] | – | – | – | – | – | – | 0.0024 |
| CCCCCCCCCCCCCCCCOP(=O)([O-])OCC[N+](C)(C)C [Milfotesine, miltefosine, reference compound] | – | – | – | – | 0.114 (≈ 0.278 µM) | – | – |

Reference: patent publication US8288374B2, “Medicinal composition containing benzo[a]phenoxazine compound as the active ingredient for prevention or treatment of protozoal disease” (Hoshi University, priority 2008, dated 2012)
